Results from ChEMBL document CHEMBL1154297, “Inhibitor profiling of the Pseudomonas aeruginosa virulence factor LasB using N-alpha mercaptoamide template-based inhibitors” (Bioorg Med Chem Lett, 2009).
pKi: −log10 of the molar value.

The molecules below were run against Elastase (Pseudomonas aeruginosa (strain ATCC 15692 / PAO1 / 1C / PRS 101 / LMG12228), UniProt P14756) (assay: Inhibition of Pseudomonas aeruginosa LasB by fluorimetric assay in buffer of pH 7.2). Conditions: not given; call rule not given here.
Chain of Elastase (P14756 whole entry): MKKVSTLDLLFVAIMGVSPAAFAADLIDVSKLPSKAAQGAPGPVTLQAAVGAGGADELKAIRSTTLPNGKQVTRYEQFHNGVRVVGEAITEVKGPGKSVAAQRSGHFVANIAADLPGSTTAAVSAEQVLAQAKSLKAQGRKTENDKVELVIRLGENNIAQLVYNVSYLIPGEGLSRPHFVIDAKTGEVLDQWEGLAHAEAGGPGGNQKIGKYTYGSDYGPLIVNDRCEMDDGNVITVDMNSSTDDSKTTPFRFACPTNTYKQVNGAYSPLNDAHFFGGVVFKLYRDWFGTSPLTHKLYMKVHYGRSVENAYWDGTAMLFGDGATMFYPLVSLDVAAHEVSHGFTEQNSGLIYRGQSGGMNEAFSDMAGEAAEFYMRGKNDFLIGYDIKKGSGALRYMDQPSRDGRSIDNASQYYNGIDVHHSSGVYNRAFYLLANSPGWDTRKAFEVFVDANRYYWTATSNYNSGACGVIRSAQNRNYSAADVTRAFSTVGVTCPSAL

Ki | Compound
Not Active | CC(C)[C@H](NC(=O)[C@H](CCCNC(=N)N)NC(=O)CS)C(N)=O
Not Active | NC(=O)[C@H](CC(=O)O)NC(=O)[C@H](CO)NC(=O)CS
Not Active | CC(C)[C@H](NC(=O)CS)C(=O)N[C@@H](Cc1c[nH]c2ccccc12)C(N)=O
Not Active | N=C(N)NCCC[C@H](NC(=O)[C@H](CCCCN)NC(=O)CS)C(N)=O
Not Active | NC(=O)[C@H](CC(=O)O)NC(=O)[C@H](Cc1ccccc1)NC(=O)CS
Not Active | CC(C)C[C@H](NC(=O)[C@H](CCCNC(=N)N)NC(=O)CS)C(N)=O
Not Active | NC(=O)[C@H](Cc1ccccc1)NC(=O)[C@H](CC(=O)O)NC(=O)CS
Not Active | NC(=O)[C@H](CC(=O)O)NC(=O)CNC(=O)CS
Not Active | CC[C@@H](C)[C@H](NC(=O)CS)C(=O)N[C@@H](CCCNC(=N)N)C(N)=O
Not Active | CC[C@@H](C)[C@H](NC(=O)CS)C(=O)N[C@@H](Cc1ccccc1)C(N)=O

Same assay, conditions: read-out: Ki

Compound | pKi
NCCCC[C@H](NC(=O)[C@H](CCCCN)NC(=O)CS)C(N)=O | 3.36
N=C(N)NCCC[C@H](NC(=O)[C@H](CO)NC(=O)CS)C(N)=O | 3.35
CC(C)C[C@H](NC(=O)[C@@H](NC(=O)CS)C(C)C)C(N)=O | 4.16
CC(C)[C@H](NC(=O)CS)C(=O)N[C@@H](CCCN=C(N)N)C(N)=O | 4.16
CC(C)[C@H](NC(=O)[C@@H](NC(=O)CS)[C@@H](C)O)C(N)=O | 3.42
CC(C)C[C@H](NC(=O)[C@H](CC(C)C)NC(=O)CS)C(N)=O | 4.28
CC(C)C[C@H](NC(=O)[C@H](CCC(N)=O)NC(=O)CS)C(N)=O | 3.27
NC(=O)[C@H](Cc1ccccc1)NC(=O)CNC(=O)CS | 4.29
CSCC[C@H](NC(=O)CS)C(=O)N[C@H](C(N)=O)C(C)C | 4.01
CSCC[C@H](NC(=O)CS)C(=O)N[C@@H](CCCCN)C(N)=O | 5.41
CC(C)[C@H](NC(=O)[C@H](Cc1c[nH]cn1)NC(=O)CS)C(N)=O | 4.33
NCCCC[C@H](NC(=O)[C@@H]1CCCN1C(=O)CS)C(N)=O | 3.12
CC[C@@H](C)[C@H](NC(=O)CS)C(=O)N[C@@H](Cc1c[nH]c2ccccc12)C(N)=O | 3.44
CC[C@@H](C)[C@H](NC(=O)CS)C(=O)N[C@@H](CC(C)C)C(N)=O | 5.89
CC(C)C[C@H](NC(=O)[C@@H]1CCCN1C(=O)CS)C(N)=O | 3.61
CC(C)C[C@H](NC(=O)[C@H](CCCCN)NC(=O)CS)C(N)=O | 3.91
NC(=O)[C@H](Cc1ccccc1)NC(=O)[C@H](CCCN=C(N)N)NC(=O)CS | 3.65
C[C@@H](O)[C@H](NC(=O)CS)C(=O)N[C@@H](CCCN=C(N)N)C(N)=O | 3.21
NC(=O)[C@H](Cc1ccccc1)NC(=O)[C@H](Cc1ccccc1)NC(=O)CS | 3.84
C[C@@H](O)[C@H](NC(=O)CS)C(=O)N[C@@H](Cc1c[nH]c2ccccc12)C(N)=O | 4.19
CSCC[C@H](NC(=O)CS)C(=O)N[C@@H](Cc1c[nH]c2ccccc12)C(N)=O | 3.69
CC(C)C[C@H](NC(=O)CNC(=O)CS)C(N)=O | 3.86
CC(C)[C@H](NC(=O)[C@H](Cc1ccccc1)NC(=O)CS)C(N)=O | 4.96
CC[C@@H](C)[C@H](NC(=O)CS)C(=O)N[C@H](C(N)=O)C(C)C | 5.74
NC(=O)[C@H](CCCN=C(N)N)NC(=O)CNC(=O)CS | 3.19
CC(C)C[C@H](NC(=O)[C@H](Cc1ccccc1)NC(=O)CS)C(N)=O | 3.19
CC[C@@H](C)[C@H](NC(=O)CS)C(=O)N[C@@H](CCCCN)C(N)=O | 3.72
NC(=O)C[C@H](NC(=O)CS)C(=O)N[C@@H](Cc1c[nH]c2ccccc12)C(N)=O | 4.15
CC(C)[C@H](NC(=O)[C@H](Cc1ccc(O)cc1)NC(=O)CS)C(N)=O | 6.11
